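The compound was tested at five concentrations on cells cultured in 96-well plates, with a 48-hour exposure period. GI50 is the concentration that inhibits growth by half.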 Calls of active or inactive are those of the source. No stated cut-off is given here; in the data, active = GI50 up to about 1.1 µM and inactive = higher.
Columns and labels:
Experiment in all cases: NCI anticancer screen, dose series, 48 h
XF498 = system: XF498
SNB-78 = system: SNB-78
RXF 631 = system: RXF 631
LXFL 529 = system: LXFL 529
KM-20L2 = system: KM-20L2
DMS-273 = system: DMS-273
DMS-114 = system: DMS-114
MDA-N = system: MDA-N
BT-549 = system: BT-549

Measured: GI50

CCOC(OC(C)=O)[C@@H]1C=C[C@H](C)N(c2ccc([N+](=O)[O-])cc2)O1 (stereo partly drawn)
inactive: XF498 14.6 µM | SNB-78 7.48 µM | RXF 631 4.98 µM | LXFL 529 3.65 µM | KM-20L2 8.55 µM | DMS-273 3.19 µM | DMS-114 4.69 µM

O=C(CC1(O)C(=O)Nc2c(Cl)cc(Cl)cc21)c1cccc2ccccc12 (stereo not drawn)
inactive: XF498 20.4 µM | SNB-78 26.7 µM | RXF 631 18.1 µM | LXFL 529 15.3 µM | KM-20L2 18.9 µM | DMS-273 13.7 µM | DMS-114 17.9 µM

CC1=C(C(=O)CC(=O)C(=O)Nc2ccccc2C(F)(F)F)Sc2ccccc2N1
inactive: XF498 31.5 µM | SNB-78 47.3 µM | RXF 631 86.5 µM | LXFL 529 35.7 µM | KM-20L2 > 100 µM | DMS-273 40.2 µM | DMS-114 32.6 µM

CC12C/C(=C\c3ccccc3)C(=O)C3C1CCCC32
inactive: XF498 > 100 µM | RXF 631 > 100 µM | LXFL 529 56.9 µM | KM-20L2 63.1 µM | DMS-273 42.6 µM | DMS-114 41.6 µM

Cn1c(=O)c2ccc(-c3ccc(Br)cc3)nc2n(C)c1=O
inactive: XF498 > 100 µM | SNB-78 85.3 µM | RXF 631 > 100 µM | LXFL 529 > 100 µM | DMS-273 > 100 µM | DMS-114 > 100 µM

N#Cc1cc([N+](=O)[O-])ccc1NC(=O)C(=O)Nc1n[nH]c(N)n1
inactive: XF498 > 100 µM | SNB-78 > 100 µM | RXF 631 > 100 µM | LXFL 529 > 100 µM | KM-20L2 > 100 µM | DMS-273 > 100 µM | DMS-114 > 100 µM

CC(=O)NC(CCCNCc1ccccc1)C(=O)NCc1ccccc1 (stereo not drawn)
inactive: XF498 > 100 µM | SNB-78 82 µM | RXF 631 > 100 µM | LXFL 529 > 100 µM | KM-20L2 > 100 µM | DMS-273 > 100 µM | DMS-114 > 100 µM

Nc1ccccc1C(=O)/C=C/c1ccccc1O
inactive: XF498 > 100 µM | SNB-78 41.5 µM | RXF 631 55.8 µM | LXFL 529 39.2 µM | KM-20L2 > 100 µM | DMS-114 29.8 µM

O=c1c2cc(Br)cc(Br)c2nc(CCCl)n1CCO
inactive: XF498 41.7 µM | SNB-78 > 100 µM | RXF 631 > 100 µM | LXFL 529 77.6 µM | KM-20L2 > 100 µM | DMS-114 42.4 µM

CC(=O)O[C@H]1CCC2[C@@H]3CC[C@]4(C)CC(=O)C=C[C@]4(C)C3CC[C@@]21C (stereo partly drawn)
inactive: SNB-78 14.9 µM | RXF 631 > 50.9 µM | LXFL 529 14.8 µM | MDA-N 26.4 µM | BT-549 16.4 µM | KM-20L2 19.4 µM | DMS-273 17.7 µM | DMS-114 11.3 µM

CCCCCCCCCCCCCCCCOP(=O)(O)Oc1ccc(/C=C\c2ccc(OP(=O)(O)OCCCCCCCCCCCCCCCC)cc2)cc1
inactive: SNB-78 20.1 µM | RXF 631 48.5 µM | LXFL 529 28.3 µM | KM-20L2 67.3 µM | DMS-273 25.1 µM | DMS-114 10.1 µM
